Data published in paper PMC7578299, “The antiviral effects of baloxavir marboxil against influenza A virus infection in ferrets” (Influenza and Other Respiratory Viruses, 2020).
Several values for one entry are separate records, joined by “and”; a condition that tells them apart may be missing. Equal values may be shown once. Read-outs that look alike come from different tables or passages of the source.

Tests used:
[1] = Stability in plasma, human; assay type: in vitro ADME; conditions: incubation of BXM; for % Residual in plasma (BXA, calculated from BXM concentration at 0 min as molar concentration): mean of duplicate; for % Residual in plasma Individual value (BXA, from BXM concentration at 0 minutes as molar concentration): duplicates
Experimental: (§1) Approximately 30 mL of blood from Japanese male healthy volunteers was collected and centrifuged to obtain plasma. Blood samples from ferrets, rats, dogs, and monkeys were collected under anesthesia and centrifuged to obtain plasma. BXM was added to reach a final concentration of 200 ng/mL to all pooled plasma samples per species. After incubation for 5, 15, and 30 minutes at 37°C, twofold volume of ice‐cold acetonitrile/methanol (1:1, v/v) was added to the plasma samples to stop further reactions, which were then centrifuged at 1800 g for 10 minutes prior to LC‐MS/MS analysis of BXM in the supernatants.

[2] = Stability in plasma, ferret; assay type: in vitro ADME; conditions: incubation of BXM; for % Residual in plasma (BXA, calculated from BXM concentration at 0 min as molar concentration): mean of duplicate; for % Residual in plasma Individual value (BXA, from BXM concentration at 0 minutes as molar concentration): duplicates
Experimental: as §1

[3] = parameters: method as in Koshimichi et al., J Pharm Sci 2019;108:1896–1904; conditions: Japanese patients, ref Koshimichi et al., J Pharm Sci 2019;108:1896–1904, cited from earlier work
[4] = Pharmacokinetic analysis in ferrets after a single oral administration of BXM; assay type: in vivo, ferret
Experimental: One day prior to administration, group assignment was carried out taking body weight into account. Under isoflurane anesthesia, fasted ferrets (four per group) received BXM (10 or 30 mg/5 mL/kg) suspension orally using an intragastric tube. Blood samples were collected at 0.5, 1, 2, 4, 6, 8, and 24 hours after single oral administration of BXM and centrifuged to obtain plasma. The concentrations of BXA and BXM in plasma were determined by liquid chromatography‐tandem mass spectrometry (LC‐MS/MS). The lower limit of quantification of BXA and BXM in ferret plasma was 0.5 ng/mL. The pharmacokinetic parameters of BXA and BXM were calculated using non‐compartmental analysis module in Phoenix WinNonlin software (version 8.0; Certara LP) (https://onlinehelp.certara.com/phoenix/8.2/topics/nca.htm) based on a non‐compartment model analysis with uniform weighting.

[5] = Stability in plasma, monkey; assay type: in vitro ADME; conditions: incubation of BXM; for % Residual in plasma (BXA, calculated from BXM concentration at 0 min as molar concentration): mean of duplicate; for % Residual in plasma Individual value (BXA, from BXM concentration at 0 minutes as molar concentration): duplicates
Experimental: as §1

Stability in plasma, rat = assay type: in vitro ADME; conditions: incubation of BXM; for % Residual in plasma (BXA, calculated from BXM concentration at 0 min as molar concentration): mean of duplicate; for % Residual in plasma Individual value (BXA, from BXM concentration at 0 minutes as molar concentration): duplicates
Experimental: as §1

Stability in plasma, dog = assay type: in vitro ADME; conditions: incubation of BXM; for % Residual in plasma (BXA, calculated from BXM concentration at 0 min as molar concentration): mean of duplicate; for % Residual in plasma Individual value (BXA, from BXM concentration at 0 minutes as molar concentration): duplicates
Experimental: as §1

[6] = 5% SDS water vs 0.5% MC, BXM 10 mg/kg
[7] = single oral BXM 10 mg/kg, 0.5% MC vehicle, mean of three ferrets
[8] = single oral BXM 10 mg/kg, 5% SDS water vehicle, mean of four ferrets
[9] = single oral BXM 10 mg/kg, individual ferrets (Ferret-01 to Ferret-04)
[10] = single oral BXM 10 mg/kg, mean of four ferrets
[11] = single oral BXM 30 mg/kg, 5% SDS water vehicle, mean of four ferrets
[12] = single oral BXM 30 mg/kg, individual ferrets (Ferret-05 to Ferret-08)
[13] = single oral BXM 30 mg/kg, mean of four ferrets

## O=C1c2c(O)c(=O)ccn2N([C@@H]2c3ccccc3SCc3c2ccc(F)c3F)[C@@H]2COCCN12 [BXA, baloxavir acid]
[1]; 10 min
  % Residual in plasma (BXA, calculated from BXM concentration at 0 min as molar concentration): 8.3%
[1]; 10 minutes
  % Residual in plasma Individual value (BXA, from BXM concentration at 0 minutes as molar concentration): 8.4% and 8.3%
[1]; 20 min
  % Residual in plasma (BXA, calculated from BXM concentration at 0 min as molar concentration): 22.4%
[1]; 20 minutes
  % Residual in plasma Individual value (BXA, from BXM concentration at 0 minutes as molar concentration): 22.4%
[1]; 30 min
  % Residual in plasma (BXA, calculated from BXM concentration at 0 min as molar concentration): 38.1%
[1]; 30 minutes
  % Residual in plasma Individual value (BXA, from BXM concentration at 0 minutes as molar concentration): 38.4% and 37.8%
[2]; 10 min
  % Residual in plasma (BXA, calculated from BXM concentration at 0 min as molar concentration): 4.6%
[2]; 10 minutes
  % Residual in plasma Individual value (BXA, from BXM concentration at 0 minutes as molar concentration): 4.6% and 4.7%
[2]; 20 min
  % Residual in plasma (BXA, calculated from BXM concentration at 0 min as molar concentration): 13.9%
[2]; 20 minutes
  % Residual in plasma Individual value (BXA, from BXM concentration at 0 minutes as molar concentration): 13.8% and 14.1%
[2]; 30 min
  % Residual in plasma (BXA, calculated from BXM concentration at 0 min as molar concentration): 24.9%
[2]; 30 minutes
  % Residual in plasma Individual value (BXA, from BXM concentration at 0 minutes as molar concentration): 24.9% and 25.0%
[3]; BXM 10 mg
  plasma concentration at 24 hours: 15.1 (range 6.38‐29.0) ng/mL
[3]; BXM 40 mg
  plasma concentration at 24 hours: 61.5 (range 27.9‐118) ng/mL
[4]; [6]
  AUC0-24hr, Ratio to 0.5% MC: 7.0
  C24hr, Ratio to 0.5% MC: 13.6
  Cmax, Ratio to 0.5% MC: 4.2
  T1/2, Ratio to 0.5% MC: 1.5
  Tmax, Ratio to 0.5% MC: 3.0
[4]; [7]
  AUC0-24hr: 60.2 ng·h/mL
  C24hr: 0.223 ng/mL
  Cmax: 15.8 ng/mL
  T1/2: 4.60 h
  Tmax: 0.50 h
[4]; [8]
  AUC0-24 h: 421 ± 119 ng·h/mL
  C 24 h: 3.03 ± 2.33 ng/mL and 3.03 ng/mL
  C max: 66.6 ± 14.6 ng/mL
  T 1/2 (terminal elimination half-life): 6.91 ± 3.79 h
  T max: 1.50 ± 0.58 h
[4]; [9]
  AUC0-24hr, individual data: 292 ng·h/mL and 576 ng·h/mL and 439 ng·h/mL and 378 ng·h/mL
  C24hr, individual data: 0.792 ng/mL and 3.90 ng/mL and 1.52 ng/mL and 5.90 ng/mL
  Cmax, individual data: 59.4 ng/mL and 80.1 ng/mL and 77.3 ng/mL and 49.5 ng/mL
  T1/2, individual data: 4.21 h and 6.47 h and 4.57 h and 12.4 h
  Tmax, individual data: 1.00 hr (2×) and 2.00 hr (2×)
[4]; [10]
  AUC0-24 h: 0.871 ± 0.246 µM·h
  C 24 h: 6.26 ± 4.82 nM
[4]; single oral BXM 10 mg/kg, mean of four ferrets, read-out: C max
  Cmax: 138 ± 30 nM
[4]; [11]
  AUC0-24 h: 3240 ± 3240 ng·h/mL
  C 24 h: 9.91 ± 8.77 ng/mL and 9.91 ng/mL
  C max: 365 ± 316 ng/mL
  T 1/2 (terminal elimination half-life): 4.44 ± 0.67 h
  T max: 2.00 ± 1.41 h
[4]; [12]
  AUC0-24hr, individual data: 7580 ng·h/mL and 3840 ng·h/mL and 1040 ng·h/mL and 508 ng·h/mL
  C24hr, individual data: 21.3 ng/mL and 12.3 ng/mL and 3.38 ng/mL and 2.64 ng/mL
  Cmax, individual data: 754 ng/mL and 489 ng/mL and 128 ng/mL and 89.6 ng/mL
  T1/2, individual data: 3.90 h and 4.32 h and 4.12 h and 5.41 h
  Tmax, individual data: 1.00 hr (2×) and 4.00 hr and 2.00 hr
[4]; [13]
  AUC0-24 h: 6.71 ± 6.71 µM·h
  C 24 h: 20.5 ± 18.2 nM
[4]; single oral BXM 30 mg/kg, mean of four ferrets, read-out: C max
  Cmax: 755 ± 653 nM
[5]; 10 min
  % Residual in plasma (BXA, calculated from BXM concentration at 0 min as molar concentration): 9.0%
[5]; 10 minutes
  % Residual in plasma Individual value (BXA, from BXM concentration at 0 minutes as molar concentration): 8.9% and 9.1%
[5]; 20 min
  % Residual in plasma (BXA, calculated from BXM concentration at 0 min as molar concentration): 24.0%
[5]; 20 minutes
  % Residual in plasma Individual value (BXA, from BXM concentration at 0 minutes as molar concentration): 23.5% and 24.6%
[5]; 30 min
  % Residual in plasma (BXA, calculated from BXM concentration at 0 min as molar concentration): 43.0%
[5]; 30 minutes
  % Residual in plasma Individual value (BXA, from BXM concentration at 0 minutes as molar concentration): 44.0% and 42.1%
Stability in plasma, rat; 10 min
  % Residual in plasma (BXA, calculated from BXM concentration at 0 min as molar concentration): 104.6%
Stability in plasma, rat; 10 minutes
  % Residual in plasma Individual value (BXA, from BXM concentration at 0 minutes as molar concentration): 102.8% and 106.3%
Stability in plasma, rat; 20 min
  % Residual in plasma (BXA, calculated from BXM concentration at 0 min as molar concentration): 104.0%
Stability in plasma, rat; 20 minutes
  % Residual in plasma Individual value (BXA, from BXM concentration at 0 minutes as molar concentration): 102.2% and 105.9%
Stability in plasma, rat; 30 min
  % Residual in plasma (BXA, calculated from BXM concentration at 0 min as molar concentration): 103.2%
Stability in plasma, rat; 30 minutes
  % Residual in plasma Individual value (BXA, from BXM concentration at 0 minutes as molar concentration): 103.0% and 103.4%
Stability in plasma, dog; 10 min
  % Residual in plasma (BXA, calculated from BXM concentration at 0 min as molar concentration): 2.8%
Stability in plasma, dog; 10 minutes
  % Residual in plasma Individual value (BXA, from BXM concentration at 0 minutes as molar concentration): 2.8%
Stability in plasma, dog; 20 min
  % Residual in plasma (BXA, calculated from BXM concentration at 0 min as molar concentration): 8.2%
Stability in plasma, dog; 20 minutes
  % Residual in plasma Individual value (BXA, from BXM concentration at 0 minutes as molar concentration): 8.1% and 8.2%
Stability in plasma, dog; 30 min
  % Residual in plasma (BXA, calculated from BXM concentration at 0 min as molar concentration): 15.6%
Stability in plasma, dog; 30 minutes
  % Residual in plasma Individual value (BXA, from BXM concentration at 0 minutes as molar concentration): 15.6%
